# Test results taken from patent US6268533A, “Formoterol process” (Sepracor Inc., priority 2000, dated 2001).
# Where a name gives a salt, the structure may show the parent alone.
# Tests used:
# [1] = moisture sorption of salts, water content by Karl Fischer titration; assay type: physicochemical; conditions: for moisture sorption compared with other salts or forms (in words): comparison of salts/polymorphs of R,R-formoterol; for water content (moisture sorption): room temperature
# Protocol: Water absorption is a major problem in formulating a medicament for therapeutic use, and therefore a salt that has minimal water absorption offers significant advantages. In a series of experiments various salts of R,R-formoterol were prepared.
# The salts were exposed to varying levels of humidity at room temperature for 1 to 28 days, and the samples were analyzed for water content by Karl Fischer titration. The values are given in % w/w.
# [2] = thermal stability of crystal forms, loss on drying by TGA; assay type: physicochemical; conditions: for % LOD by TGA: held 15 min
# Protocol: (§1) In each experiment, the polymorph was warmed from 30° C. to the designated temperature at 10° C./min and held at the designated temperature for 15 minutes. The loss on drying (LOD) was measured, and the appearance of the material was noted.
# [3] = appearance of sample after TGA; assay type: physicochemical
# Protocol: as §1, with “noted. […] The differences in appearance of each crystal form at the designated temperatures were consistent with the changes in LODs.” for “noted.”
# [4] = total impurities of crystal forms after heating; assay type: physicochemical; conditions: for decomposition (total impurities study): 175° C.
# From the text: The two crystal forms of (R,R)-formoterol tartrate were also studied by measuring the total impurities in the material from each of the experiments in Table 6.
# β-adrenoceptors = conditions: four isomers, in vitro; cited from earlier work
# guinea pig trachea = conditions: four isomers compared; cited from earlier work
# [5] = test system: β2 -selective adrenoceptor; conditions: inhaled; background statement; cited from earlier work
# [6] = stability of formoterol salts in the presence of lactose and water; assay type: physicochemical
# From the text: Alternatively, if lactose is to be used, as described below, the dry powder must be packaged in such a manner as to exclude moisture.
# [7] = 85% RH (printed RE for the fumarate)
compound,measurement,setting,value
COc1ccc(C[C@@H](C)NC[C@H](O)c2ccc(O)c(NC=O)c2)cc1 [P1],water absorbed,[1]; 85% RH for 11 days,less than 0.1%
same,moisture sorption compared with other salts or forms (in words),[1],equivalent in moisture sorption
same,% LOD by TGA,[2]; 75° C.,0.092%
same,% LOD by TGA,[2]; 100° C.,0.065%
same,% LOD by TGA,[2]; 125° C.,0.230%
same,% LOD by TGA,[2]; 150° C.,0.390%
same,LOD in words,[2]; 175° C.,"significant LODs, the result of decomposition"
same,% LOD by TGA,[2]; 175° C.,10.805%
same,appearance of sample after TGA,[3]; 75° C.,white
same,appearance of sample after TGA,[3]; 100° C.,white
same,appearance of sample after TGA,[3]; 125° C.,white
same,appearance of sample after TGA,[3]; 150° C.,off-white
same,appearance of sample after TGA,[3]; 175° C.,brown
same,decomposition (total impurities study),[4],nearly completely decomposed
"COc1ccc(C[C@H](C)NC[C@H](O)c2ccc(O)c(NC=O)c2)cc1 [(R,S), reference compound]",order of potency,β-adrenoceptors,"(R,R)>>(R,S)=(S,R)>(S,S)"
"COc1ccc(C[C@@H](C)NC[C@H](O)c2ccc(O)c(NC=O)c2)cc1 [(R,R)-Formoterol-SO4]",water content (moisture sorption),"[1]; 11% relative humidity, day 1",1.2251 % w/w
same,water content (moisture sorption),"[1]; 11% relative humidity, day 3",1.3892 % w/w
same,water content (moisture sorption),"[1]; 11% relative humidity, day 8",0.9574 % w/w
same,water content (moisture sorption),"[1]; 11% relative humidity, day 14",1.209 % w/w
same,water content (moisture sorption),"[1]; 11% relative humidity, day 28",0.7866 % w/w
same,water absorbed,[1]; 43% relative humidity,more than 3 % by weight
same,water content (moisture sorption),"[1]; 43% relative humidity, day 1",2.9647 % w/w
same,water content (moisture sorption),"[1]; 43% relative humidity, day 3",3.4998 % w/w
same,water content (moisture sorption),"[1]; 43% relative humidity, day 8",3.4048 % w/w
same,water content (moisture sorption),"[1]; 43% relative humidity, day 14",2.2985 % w/w
same,water content (moisture sorption),"[1]; 43% relative humidity, day 28",3.1595 % w/w
COc1ccc(C[C@@H](C)NC[C@H](O)c2ccc(O)c(NC=O)c2)cc1 [P2],water absorbed,[1]; 85% RH for 11 days,less than 0.1%
same,moisture sorption compared with other salts or forms (in words),[1],equivalent in moisture sorption
same,% LOD by TGA,[2]; 75° C.,0.020%
same,% LOD by TGA,[2]; 100° C.,0.045%
same,% LOD by TGA,[2]; 125° C.,0.305%
same,% LOD by TGA,[2]; 150° C.,1.230%
same,LOD in words,[2]; 175° C.,"significant LODs, the result of decomposition"
same,% LOD by TGA,[2]; 175° C.,12.990%
same,appearance of sample after TGA,[3]; 75° C.,white
same,appearance of sample after TGA,[3]; 100° C.,white
same,appearance of sample after TGA,[3]; 125° C.,off-white
same,appearance of sample after TGA,[3]; 150° C.,tan
same,appearance of sample after TGA,[3]; 175° C.,brown
same,total impurities compared with P1,[4]; 100° C. and higher,higher levels of total impurities
same,decomposition (total impurities study),[4],nearly completely decomposed
"COc1ccc(C[C@@H](C)NC[C@H](O)c2ccc(O)c(NC=O)c2)cc1 [(R,R)-Formoterol-HCl]",water content (moisture sorption),"[1]; 11% relative humidity, day 1",0.5735 % w/w
same,water content (moisture sorption),"[1]; 11% relative humidity, day 3",0.553 % w/w
same,water content (moisture sorption),"[1]; 11% relative humidity, day 8",0.3656 % w/w
same,water content (moisture sorption),"[1]; 11% relative humidity, day 14",0.4385 % w/w
same,water content (moisture sorption),"[1]; 11% relative humidity, day 28",0.2644 % w/w
same,water content (moisture sorption),"[1]; 43% relative humidity, day 1",0.8502 % w/w
same,water content (moisture sorption),"[1]; 43% relative humidity, day 3",1.1636 % w/w
same,water content (moisture sorption),"[1]; 43% relative humidity, day 8",0.8781 % w/w
same,water content (moisture sorption),"[1]; 43% relative humidity, day 14",0.9802 % w/w
same,water content (moisture sorption),"[1]; 43% relative humidity, day 28",0.8133 % w/w
same,water absorbed,[1]; 75% RH,1.3-1.4%
same,water content (moisture sorption),"[1]; 75% relative humidity, day 1",1.5335 % w/w
same,water content (moisture sorption),"[1]; 75% relative humidity, day 3",1.3288 % w/w
same,water content (moisture sorption),"[1]; 75% relative humidity, day 8",1.4931 % w/w
same,water content (moisture sorption),"[1]; 75% relative humidity, day 14",1.4585 % w/w
same,water content (moisture sorption),"[1]; 75% relative humidity, day 28",1.221 % w/w
same,water content (moisture sorption),"[1]; 89% relative humidity, day 1",1.4573 % w/w
same,water content (moisture sorption),"[1]; 89% relative humidity, day 3",2.419 % w/w
same,water content (moisture sorption),"[1]; 89% relative humidity, day 8",1.6487 % w/w
same,water content (moisture sorption),"[1]; 89% relative humidity, day 14",1.5739 % w/w
same,water content (moisture sorption),"[1]; 89% relative humidity, day 28",1.1139 % w/w
same,moisture sorption compared with other salts or forms (in words),[1]; listed as hydrochloride,somewhat better at 43% RE
"COc1ccc(C[C@@H](C)NC[C@H](O)c2ccc(O)c(NC=O)c2)cc1 [(R,R)-isomer]","relaxing activity, rank of potency",guinea pig trachea,most potent
same,order of potency,β-adrenoceptors,"(R,R)>>(R,S)=(S,R)>(S,S)"
"COc1ccc(C[C@@H](C)NC[C@@H](O)c2ccc(O)c(NC=O)c2)cc1 [(S,R), reference compound]",order of potency,β-adrenoceptors,"(R,R)>>(R,S)=(S,R)>(S,S)"
COc1ccc(C[C@@H](C)NC[C@H](O)c2ccc(O)c(NC=O)c2)cc1 [D-tartrate],water absorbed,[1]; [7],0.4-0.5%
same,moisture sorption compared with other salts or forms (in words),[1],somewhat better than the hydrochloride
COc1ccc(C[C@@H](C)NC[C@H](O)c2ccc(O)c(NC=O)c2)cc1 [fumarate],water absorbed,[1]; [7],6%
same,moisture sorption compared with other salts or forms (in words),[1],somewhat better at 43% RE
"COc1ccc(C[C@@H](C)NC[C@H](O)c2ccc(O)c(NC=O)c2)cc1 (relative stereo) [Formoterol, (+/-) N-[2-hydroxy-5-[1-hydroxy-2[[2-(p-methoxyphenyl)-2-propyl]amino]ethyl]phenyl]-formamide]",bronchodilating effect,[5],long lasting bronchodilating effect
"COc1ccc(C[C@@H](C)NC[C@H](O)c2ccc(O)c(NC=O)c2)cc1 [R,R-formoterol L-tartrate]",hygroscopicity,[1],non-hygroscopic
same,water content (moisture sorption),"[1]; 11% relative humidity, day 1",0.0956 % w/w
same,water content (moisture sorption),"[1]; 11% relative humidity, day 3",0.1062 % w/w
same,water content (moisture sorption),"[1]; 11% relative humidity, day 8",0.0842 % w/w
same,water content (moisture sorption),"[1]; 11% relative humidity, day 14",0.1377 % w/w
same,water content (moisture sorption),"[1]; 11% relative humidity, day 28",0.0871 % w/w
same,water content (moisture sorption),"[1]; 43% relative humidity, day 1",0.1091 % w/w
same,water content (moisture sorption),"[1]; 43% relative humidity, day 3",0.1406 % w/w
same,water content (moisture sorption),"[1]; 43% relative humidity, day 8",0.0922 % w/w
same,water content (moisture sorption),"[1]; 43% relative humidity, day 14",0.104 % w/w
same,water content (moisture sorption),"[1]; 43% relative humidity, day 28",0.0705 % w/w
same,water content (moisture sorption),"[1]; 75% relative humidity, day 1",0.0895 % w/w
same,water content (moisture sorption),"[1]; 75% relative humidity, day 3",0.1367 % w/w
same,water content (moisture sorption),"[1]; 75% relative humidity, day 8",0.0732 % w/w
same,water content (moisture sorption),"[1]; 75% relative humidity, day 14",0.1146 % w/w
same,water content (moisture sorption),"[1]; 75% relative humidity, day 28",0.0691 % w/w
same,water absorbed,[1]; 89% RH,0.10 to 0.13%
same,water content (moisture sorption),"[1]; 89% relative humidity, day 1",0.1144 % w/w
same,water content (moisture sorption),"[1]; 89% relative humidity, day 3",0.1379 % w/w
same,water content (moisture sorption),"[1]; 89% relative humidity, day 8",0.1104 % w/w
same,water content (moisture sorption),"[1]; 89% relative humidity, day 14",0.1097 % w/w
same,water content (moisture sorption),"[1]; 89% relative humidity, day 28",0.1122 % w/w
same,water content (moisture sorption),"[1]; 93% relative humidity, day 1",0.1346 % w/w
same,water content (moisture sorption),"[1]; 93% relative humidity, day 3",0.2077 % w/w
same,water content (moisture sorption),"[1]; 93% relative humidity, day 8",0.1076 % w/w
same,water content (moisture sorption),"[1]; 93% relative humidity, day 14",0.2972 % w/w
same,water content (moisture sorption),"[1]; 93% relative humidity, day 28",0.1765 % w/w
same,moisture sorption compared with other salts or forms (in words),"[1]; listed as L-tartrate of R,R-formoterol",superior to all of the salts tested
"COc1ccc(C[C@H](C)NC[C@@H](O)c2ccc(O)c(NC=O)c2)cc1 [(S,S)]",order of potency,β-adrenoceptors,"(R,R)>>(R,S)=(S,R)>(S,S)"
"COc1ccc(C[C@@H](C)NC[C@H](O)c2ccc(O)c(NC=O)c2)cc1 (relative stereo) [racemic (R,R/S,S) formoterol hemifumarate hydrate]",incompatibility with lactose on encountering moisture,[6],not observed
